This note sets out measurements from EP4624465A1, “COMPOUND SERVING AS DDR1 KINASE INHIBITOR, AND MEDICINE” (Nippon Shinyaku Co., Ltd., priority 2022, dated 2024).

Structures can show the parent of a compound that is named as a salt.

The target of test [1] is T1, DDR1 kinase (Homo sapiens, UniProt Q08345). As to the kind of experiment: Evaluation of DDR1 kinase inhibition in DDR1-expressing U2OS cells (type I collagen stimulation, PathHunter detection). Format: cell-based. The note with it: type I collagen 50 µg/mL stimulation, duplicate, read-out: DDR-1 IC50. Further details: host or cells: U2OS. The protocol:
The solution was further diluted in an E-MEM medium (Fujifilm Wako Pure Chemicals, 051-07615) containing 10% fetal bovine serum (FBS, Gibco, 10270106) to 60000, 6000, 600, 60, 6, and 0.6 nM to prepare test substance solutions. 2. […] On the following day, after the plate was left at room temperature for 1 hour, a detection solution was added to the wells at […] according to the handling instructions for the PathHunter® Detection Kit (DiscoverX, 93-0001), and then incubated at room temperature for 2 hours. After the incubation, a luminescence intensity was measured by Envision (Perkin-Elmer). Tests were performed in duplicate. 3.
Target sequence in this assay (Q08345 19-913): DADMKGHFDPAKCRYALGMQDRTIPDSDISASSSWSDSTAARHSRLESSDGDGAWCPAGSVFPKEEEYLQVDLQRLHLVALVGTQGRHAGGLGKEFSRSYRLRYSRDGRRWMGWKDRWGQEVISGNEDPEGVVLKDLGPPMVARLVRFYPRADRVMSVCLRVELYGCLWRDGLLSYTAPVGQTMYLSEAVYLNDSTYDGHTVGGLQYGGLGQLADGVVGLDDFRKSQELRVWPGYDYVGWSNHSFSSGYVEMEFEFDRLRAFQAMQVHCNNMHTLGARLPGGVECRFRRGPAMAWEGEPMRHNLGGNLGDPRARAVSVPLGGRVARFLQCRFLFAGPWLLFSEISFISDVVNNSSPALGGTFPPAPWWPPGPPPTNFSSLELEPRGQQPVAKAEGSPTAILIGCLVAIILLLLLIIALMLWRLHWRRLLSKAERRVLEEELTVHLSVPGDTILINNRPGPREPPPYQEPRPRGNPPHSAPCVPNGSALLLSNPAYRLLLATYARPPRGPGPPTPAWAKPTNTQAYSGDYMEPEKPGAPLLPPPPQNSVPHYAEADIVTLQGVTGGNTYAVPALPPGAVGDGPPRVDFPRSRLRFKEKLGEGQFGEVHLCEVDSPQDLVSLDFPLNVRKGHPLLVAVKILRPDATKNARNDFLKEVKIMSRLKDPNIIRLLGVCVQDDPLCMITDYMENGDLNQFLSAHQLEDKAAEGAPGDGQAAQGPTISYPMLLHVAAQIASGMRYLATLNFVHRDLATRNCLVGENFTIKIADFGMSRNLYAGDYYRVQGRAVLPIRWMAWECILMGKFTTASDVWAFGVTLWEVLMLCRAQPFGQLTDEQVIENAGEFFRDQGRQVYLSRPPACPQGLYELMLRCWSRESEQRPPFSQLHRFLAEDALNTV

For test [2], the target named is T1, DDR1 kinase. As to the kind of experiment: Evaluation of DDR1 kinase inhibition (LANCE Ultra TR-FRET kinase assay). The class given is biochemical. Further details: purchased Carna Biosciences 08-113. The note with it: DDR1 protein 0.5 nM, LANCE Ultra ULight-poly GAT substrate, 2 hours at room temperature, duplicate; read-out: DDR-1 IC50. On the technique in general: In TR-FRET formats the signal depends on donor and acceptor labels being close together.
Target sequence in this assay (Q08345 19-876 isoform Q08345-2 limits assumed): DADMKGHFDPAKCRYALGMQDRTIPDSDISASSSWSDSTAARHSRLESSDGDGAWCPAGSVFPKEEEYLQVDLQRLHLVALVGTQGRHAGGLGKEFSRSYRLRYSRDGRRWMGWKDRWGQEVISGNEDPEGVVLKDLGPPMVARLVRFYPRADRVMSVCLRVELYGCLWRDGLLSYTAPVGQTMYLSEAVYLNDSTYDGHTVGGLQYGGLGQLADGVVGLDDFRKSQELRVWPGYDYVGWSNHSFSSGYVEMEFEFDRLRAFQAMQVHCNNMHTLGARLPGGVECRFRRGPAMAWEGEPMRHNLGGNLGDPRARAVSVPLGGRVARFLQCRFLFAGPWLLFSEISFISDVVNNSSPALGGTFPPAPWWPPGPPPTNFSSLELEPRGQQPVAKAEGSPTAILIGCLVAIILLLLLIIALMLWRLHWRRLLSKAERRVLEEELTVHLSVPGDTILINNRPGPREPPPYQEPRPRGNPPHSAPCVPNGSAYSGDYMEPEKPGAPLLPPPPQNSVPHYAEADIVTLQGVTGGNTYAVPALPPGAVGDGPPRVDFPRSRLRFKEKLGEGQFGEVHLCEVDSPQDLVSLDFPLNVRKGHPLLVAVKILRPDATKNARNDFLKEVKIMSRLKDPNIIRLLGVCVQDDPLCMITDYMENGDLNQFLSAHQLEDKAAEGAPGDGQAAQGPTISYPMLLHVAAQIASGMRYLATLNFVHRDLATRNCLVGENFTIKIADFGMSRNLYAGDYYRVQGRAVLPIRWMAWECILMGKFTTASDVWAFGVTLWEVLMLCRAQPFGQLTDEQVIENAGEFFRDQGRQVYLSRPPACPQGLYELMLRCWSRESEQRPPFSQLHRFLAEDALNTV

As usually defined, the IC50 is the midpoint of a concentration-inhibition curve.

In the case of `Nc1cc(C(=O)N2CC(c3nn(CC(=O)N4CCC[C@H]4C(F)F)c4ccccc34)C2)c(F)cn1` [Compound E-272, 2-{3-[1-(2-amino-5-fluoropyridine-4-carbonyl)azetidin-3-yl]-1H-indazol-1-yl}-1-[(2S)-2-(difluoromethyl)pyrrolidin-1-yl]ethan-1-one], the IC50 stood at 3 nM at DDR1 kinase [1] and 1.4 nM on DDR1 kinase [2].

For the molecule `Nc1cc(C(=O)N2CCC(c3nn(CC(=O)N4CCO[C@@H](C(F)(F)F)C4)c4cccc(F)c34)CC2)ccn1` [Compound E-91, 2-{3-[1-(2-aminopyridine-4-carbonyl)piperidin-4-yl]-4-fluoro-1H-indazol-1-yl]-1-[(2R)-2-(trifluoromethyl)morpholin-4-yl]ethan-1-one], the figures for the half-maximal inhibitory concentration (IC50) at DDR1 kinase [1] and at DDR1 kinase [2] were 610 nM and 11 nM, respectively.

For `Nc1nccc(C(=O)N2CC(c3nn(CC(=O)N4CCC[C@H]4C(F)(F)F)c4ccccc34)C2)c1F` [Compound E-196, 2-{3-[1-(2-amino-3-fluoropyridine-4-carbonyl)azetidin-3-yl]-1H-indazol-1-yl}-1-[(28)-2-(trifluoromethyl)pyrrolidin-1-yl]ethan-1-one], the IC50 stood at 43 nM on DDR1 kinase [1] and 2.8 nM on DDR1 kinase [2].

With `N#CC1(NC(=O)Cn2nc(C3CN(C(=O)c4cc(N)ncc4F)C3)c3ccccc32)CC1` [Compound E-244, 2-{3-{1-(2-amino-5-fluoropyridine-4-carbonyl)azetidin-3-yl]-1H-indazol-1-yl}-N-(1-cyanocyclopropyl)acetamide], the IC50 on DDR1 kinase [1] turned out to be 420 nM; on DDR1 kinase [2] it was 41 nM.

With `Cc1nc(N)sc1C(=O)N1CC(c2nn(CC(=O)N3CCC[C@H]3C(F)(F)F)c3cc(F)cc(F)c23)C1` [Compound E-106], the IC50 was 180 nM at DDR1 kinase [1] and 5.2 nM at DDR1 kinase [2].

With `Nc1nc(C(F)(F)F)c(C(=O)N2CC(c3nn(CC(=O)N4CCC[C@H]4C(F)(F)F)c4cc(F)cc(F)c34)C2)s1` [Compound E-139, 2-(3-{1-[2-amino-4-(trifluoromethyl)-1,3-thiazole-5-carbonyl]azetidin-3-yl}-4,6-difluoro-1H-indazol-1-yl)-1-[(2S)-2-(trifluoromethyl)pyrrolidin-1-yl]ethan-1-one], the IC50 at DDR1 kinase [1] amounted to 850 nM; on DDR1 kinase [2], 18 nM.

`C[C@H](N(C)C(=O)Cn1nc(C2CN(C(=O)c3cc(N)ncc3F)C2)c2ccccc21)C(F)(F)F` [Compound E-261, 2-{3-[1-(2-amino-5-fluoropyridine-4-carbonyl)azetidin-3-yl]-1H-indazol-1-yl}-N-methyl-N-[(2S)-1,1,1-trifluoropropan-2-yl]acetamide]: the figures for the IC50 on DDR1 kinase [1] and at DDR1 kinase [2] were 6 nM and 4.6 nM, respectively.

For the molecule `O=C(c1cnc(NC2CC2)s1)N1CC(c2nn(CC(=O)N3CCC[C@H]3C(F)(F)F)c3cc(F)cc(F)c23)C1` [Compound E-98, 2-(3-{1-[2-(cyclopropylamino)-1,3-thiazole-5-carbonyl]azetidin-3-yl]-4,6-difluoro-1H-indazol-1-yl)-1-[(2S)-2-(trifluoromethyl)pyrrolidin-1-yl]ethan-1-one], the half-inhibitory concentration (IC50) at DDR1 kinase [1] came out at 3700 nM; on DDR1 kinase [2], 86 nM.

Turning to `COC[C@@H]1CCCN1C(=O)Cn1nc(C2CN(C(=O)c3ccnc(N)c3)C2)c2ccccc21` [Compound E-228, 2-{3-[1-(2-aminopyridine-4-carbonyl)azetidin-3-yl}-1H-indazol-1-yl}-1-[(2S)-2-(methoxymethyl)pyrrolidin-1-yl]ethan-1-one], the figures for the IC50 at DDR1 kinase [1] and at DDR1 kinase [2] were 95 nM and 9 nM, respectively.

In the case of `CN(C(=O)Cn1nc(C2CN(C(=O)c3cc(N)ncc3F)C2)c2ccccc21)C1CCOCC1` [Compound E-255, 2-{8-[1-(2-amino-5-fluoropyridine-4-carbonyl)azetidin-8-yl]-1H-indazol-1-yl}-N-methyl-N-(oxan-4-yl)acetamide], the IC50 at DDR1 kinase [1] stood at 180 nM; on DDR1 kinase [2], 22 nM.

For `CCN(CC)C(=O)Cn1nc(C2CN(C(=O)c3cc(N)ncc3F)C2)c2ccccc21` [Compound E-263, 2-{3-[1-(2-amino-5-fluoropyridine-4-carbonyl)azetidin-3-yl]-1H-indazol-1-yl}-N,N-diethylacetamide], the IC50 is 65 nM at DDR1 kinase [1] and 15 nM at DDR1 kinase [2].

Take `Nc1cc(C(=O)N2CC(c3nn(CC(=O)N4CCC[C@H]4C(F)(F)F)c4cncc(F)c34)C2)ccn1` [Compound E-54, 2-{3-[1-(2-aminopyridine-4-carbonyl)azetidin-3-yl]-4-fluoro-1H-pyrazolo[3,4-c]pyridin-1-yl}-1-[(2S)-2-(trifluoromethyl)pyrrolidin-1-yl]ethan-1-one hydrochloride]: the figures for the IC50 on DDR1 kinase [1] and on DDR1 kinase [2] were 180 nM and 6.2 nM, respectively.

On to `Nc1cc(C(=O)N2CC(c3nn(Cc4cn(CC5CCC5)nn4)c4cccc(F)c34)C2)ccn1` [Compound E-92, 4-[3-(1-{[1-(cyclobutylmethyl)-1H-1,2,3-triazol-4-yl]methyl}-4-fluoro-1H-indazol-3-yl)azetidine-1-carbonyl]pyridin-2-amine hydrochloride], for which the IC50 stood at 1400 nM at DDR1 kinase [1] and 71 nM at DDR1 kinase [2].

`Cc1ccc2c(n1)c(C1CN(C(=O)c3cc(N)ncc3F)C1)nn2CC(=O)N1CCOC(C(F)(F)F)C1` [Compound E-185, 2-{3-[1-(2-amino-5-fluoropyridine-4-carbonyl)azetidin-3-yl]-5-methyl-1H-pyrazolo(4,3-blpyridin-1-yl}-1-[{(2R)-2-(trifluoromethyl)morpholin-4-yl]ethan-1-one p-toluenesulfonate]: the IC50 on DDR1 kinase [1] turned out to be 3300 nM; on DDR1 kinase [2], 22 nM.

Turning to `Nc1cc(C(=O)N2CC(c3nn(Cc4cn(CC5CC5)nn4)c4cccc(F)c34)C2)ccn1` [Compound E-37, 4-[3-(1-{[1-(cyclopropylmethyl)-1H-1,2,3-triazol-4-yl]methyl}-4-fluoro-1H-indazol-3-yl)azetidine-1-carbonyl]pyridin-2-amine hydrochloride], the half-inhibitory concentration (IC50) came to 2600 nM at DDR1 kinase [1] and 50 nM at DDR1 kinase [2].

As to `CN(CC(F)(F)F)C(=O)Cn1nc(C2CN(C(=O)c3nc(N)ncc3F)C2)c2ccccc21` [Compound E-276, 2-{3-[1-(2-amino-5-fluoropyrimidine-4-carbonyl)azetidin-3-yl)-1H-indazol-1-yl}-N-methyl-N-(2,2,2-trifluoroethyl)acetamide], the IC50 at DDR1 kinase [1] was 430 nM; on DDR1 kinase [2] it was 19 nM.

On to `CN(C(=O)Cn1nc(C2CN(C(=O)c3cc(N)ncc3F)C2)c2ccccc21)C1COC1` [Compound E-254, 2-{3-{1-(2-amino-5-fluoropyridine-4-carbonyl)azetidin-3-yl]-1H-indazol-1-yl}-N-methyl-N-(oxetan-3-yl)acetamide], for which the IC50 is 390 nM on DDR1 kinase [1] and 21 nM at DDR1 kinase [2].

`C[C@@H](N(C)C(=O)Cn1nc(C2CN(C(=O)c3cc(N)ncc3F)C2)c2ccccc21)C(F)(F)F` [Compound E-262, 2-{3-[1-(2-amino-5-fluoropyridine-4-carbonyl)azetidin-3-yl]-1H-indazol-1-yl}-N-methyl-N-[(2R)-1,1,1-trifluoropropan-2-yl]acetamide]: the values for the IC50 on DDR1 kinase [1] and on DDR1 kinase [2] were 20 nM and 9.3 nM, respectively.

`Nc1cc(C(=O)N2CC(c3nn(Cc4nc(C(F)(F)F)no4)c4ccccc34)C2)ccn1` [Compound E-218]: the IC50 turned out to be 74 nM at DDR1 kinase [1] and 13 nM on DDR1 kinase [2].

In the case of `O=C(Cn1nc(C2CN(C(=O)c3ccnc(NC4CC4)c3)C2)c2c(F)cc(F)cc21)NCC(F)(F)F` [Compound E-30, 2-(3-{1-[2-(cyclopropylamino)pyridine-4-carbonyl]azetidin-3-yl}-4,6-difluoro-1H-indazol-1-yl)-N-(2,2,2-trifluoroethyl)acetamide hydrochloride], the IC50 on DDR1 kinase [1] is 74 nM; on DDR1 kinase [2], 4.1 nM.

For the molecule `O=C(c1ccnc(NC2CCC(F)(F)CC2)c1)N1CC(c2nn(CC(=O)N3CCC[C@H]3C(F)(F)F)c3cc(F)cc(F)c23)C1` [Compound E-75, 2-[3-(1-{2-[(4,4-difluorocyclohexyl)aminolpyridine-4-carbonyl}azetidin-3-yl)-4,6-difluoro-1H-indazol-1-yl]-1-[(2S)-2-(trifluoromethyl)pyrrolidin-1-yl]ethan-1-one hydrochloride], the IC50 was found to be 33 nM at DDR1 kinase [1] and 15 nM on DDR1 kinase [2].

On to `Cc1c(C(=O)N2CC(c3nn(CC(=O)N4CCO[C@@H](C(F)(F)F)C4)c4cncc(F)c34)C2)ccnc1N` [Compound E-180, 2-{3-[1-(2-amino-3-methylpyridine-4-carbonyl)azetidin-3-yl]-4-fluoro-1H-pyrazolo{3,4-c)pyridin-1-yl}-1-[(2R)-2-(trifluoromethyl)morpholin-4-yl}ethan-1-one], for which the IC50 at DDR1 kinase [1] is 3000 nM; at DDR1 kinase [2], 22 nM.

Consider `O=C(Cn1nc(C2CN(C(=O)c3ccnc(NC4CC4)c3)C2)c2c(F)cccc21)NCC(F)(F)F` [Compound E-65, 2-(3-{1-[2-(cyclopropylamino)pyridine-4-carbonyl]azetidin-3-yl}-4-fluoro-1H-indazol-1-yl)-N-(2,2,2-trifluoroethyl)acetamide hydrochloride], for which the results for the IC50 on DDR1 kinase [1] and on DDR1 kinase [2] were 41 nM and 1.9 nM, respectively.

Consider `CN(CC1CC1)C(=O)Cn1nc(C2CN(C(=O)c3ccnc(N)c3)C2)c2ccccc21` [Compound E-229, 2-{3-[1-(2-aminopyridine-4-carbonyl)azetidin-3-yl]-1H-indazol-1-yl}-N-(cyclopropylmethyl)-N-methylacetamide], for which the IC50 at DDR1 kinase [1] was found to be 81 nM; at DDR1 kinase [2], 6 nM.
